According to ChEMBL document CHEMBL3885881, “DrugMatrix”:

Species: Rattus norvegicus
Experiment: DrugMatrix - Regimen: Daily Repeat
Format: toxicity, organism-based, Sprague-Dawley
Set-up: regimen Daily Repeat, gender Male, age 6-8 weeks
Settings: in vivo, po, route oral GAVAGE, […]; for URIC ACID / ALANINE AMINOTRANSFERASE / ALBUMIN / ALKALINE PHOSPHATASE / ASPARTATE AMINOTRANSFERASE / BLOOD UREA NITROGEN / CARBON DIOXIDE / CHLORIDE / CHOLESTEROL / CREATINE PHOSPHOKINASE / CREATININE / GLUCOSE / LACTATE DEHYDROGENASE / LIPASE / PHOSPHORUS / POTASSIUM / SODIUM / TOTAL BILIRUBIN / TOTAL PROTEIN: tissue Plasma
[1] = 1 mg/kg, 120 h, tissue Blood, dose level Low, time 5 day
[2] = 1 mg/kg, 120 h, dose level Low, time 5 day
[3] = 2.75 mg/kg, 72 h, tissue Blood, dose level High, time 3 day
[4] = 2.75 mg/kg, 72 h, dose level High, time 3 day
[5] = 2.75 mg/kg, 120 h, tissue Blood, dose level High, time 5 day
[6] = 2.75 mg/kg, 120 h, dose level High, time 5 day

C[C@H]1O[C@@H](O[C@H]2[C@@H](O)C[C@H](O[C@H]3[C@@H](O)C[C@H](O[C@H]4CC[C@@]5(C)[C@H](CC[C@@H]6[C@@H]5CC[C@]5(C)[C@@H](C7=CC(=O)OC7)CC[C@]65O)C4)O[C@@H]3C)O[C@@H]2C)C[C@H](O)[C@@H]1O [DIGITOXIN]
URIC ACID (1 mg/kg, 72 h, dose level Low, time 3 day): 0.53 mg/dL | ABSOLUTE BASOPHIL [1]: 0 CELLS/uL | ABSOLUTE EOSINOPHIL [1]: 0 CELLS/uL | ABSOLUTE LYMPHOCYTE [1]: 9184 CELLS/uL | ABSOLUTE MONOCYTE [1]: 19 CELLS/uL | ABSOLUTE SEGMENTED NEUTROPHIL [1]: 697 CELLS/uL | BASOPHIL [1]: 0% | EOSINOPHIL [1]: 0% | ERYTHROCYTE COUNT [1]: 5.65 x10E6/uL | HEMATOCRIT [1]: 35.27% | HEMOGLOBIN [1]: 13.63 G/DL | LEUKOCYTE COUNT [1]: 9.9 x10E3/uL | LYMPHOCYTE [1]: 93% | MEAN CORPUSCULAR HEMOGLOBIN [1]: 24.2 pg | MEAN CORPUSCULAR HEMOGLOBIN CONCENTRATION [1]: 38.7 G/DL | MEAN CORPUSCULAR VOLUME [1]: 62.47 fL | MONOCYTE [1]: 0.33% | NEUTROPHIL [1]: 6.67% | NUCLEATED RED BLOOD CELLS [1]: 0 /100WBC | PLATELET COUNT [1]: 833 x10E3/uL | ALANINE AMINOTRANSFERASE [2]: 84.33 u/L | ALBUMIN [2]: 4.1 G/DL | ALKALINE PHOSPHATASE [2]: 531.67 u/L | ASPARTATE AMINOTRANSFERASE [2]: 83 u/L | BLOOD UREA NITROGEN [2]: 10.67 mg/dL | CARBON DIOXIDE [2]: 34.67 mmol/L | CHLORIDE [2]: 98.33 MEQ/L | CHOLESTEROL [2]: 76.67 mg/dL | CREATINE PHOSPHOKINASE [2]: 231.33 u/L | CREATININE [2]: 0.16 mg/dL | GLUCOSE [2]: 154 mg/dL | LACTATE DEHYDROGENASE [2]: 122.67 u/L | LIPASE [2]: 10 u/L | PHOSPHORUS [2]: 10.13 mg/dL | POTASSIUM [2]: 5.23 MEQ/L | SODIUM [2]: 142.43 MEQ/L | TOTAL BILIRUBIN [2]: 0.23 mg/dL | TOTAL PROTEIN [2]: 5.83 G/DL | URIC ACID [2]: 0.43 mg/dL | ABSOLUTE BASOPHIL [3]: 0 CELLS/uL | ABSOLUTE EOSINOPHIL [3]: 0 CELLS/uL | ABSOLUTE LYMPHOCYTE [3]: 10747 CELLS/uL | ABSOLUTE MONOCYTE [3]: 27.33 CELLS/uL | ABSOLUTE SEGMENTED NEUTROPHIL [3]: 592.33 CELLS/uL | BASOPHIL [3]: 0% | EOSINOPHIL [3]: 0% | ERYTHROCYTE COUNT [3]: 5.51 x10E6/uL | HEMATOCRIT [3]: 33.6% | HEMOGLOBIN [3]: 13.4 G/DL | LEUKOCYTE COUNT [3]: 11.37 x10E3/uL | LYMPHOCYTE [3]: 94.33% | MEAN CORPUSCULAR HEMOGLOBIN [3]: 24.33 pg | MEAN CORPUSCULAR VOLUME [3]: 61.03 fL | MONOCYTE [3]: 0.33% | NEUTROPHIL [3]: 5.33% | NUCLEATED RED BLOOD CELLS [3]: 0 /100WBC | PLATELET COUNT [3]: 448 x10E3/uL | ALANINE AMINOTRANSFERASE [4]: 73 u/L | ALBUMIN [4]: 3.8 G/DL | ALKALINE PHOSPHATASE [4]: 350.67 u/L | ASPARTATE AMINOTRANSFERASE [4]: 101.33 u/L | BLOOD UREA NITROGEN [4]: 11.67 mg/dL | CARBON DIOXIDE [4]: 23.33 mmol/L | CHLORIDE [4]: 96 MEQ/L | CHOLESTEROL [4]: 61.33 mg/dL | CREATINE PHOSPHOKINASE [4]: 274.33 u/L | CREATININE [4]: 0.13 mg/dL | GLUCOSE [4]: 147.33 mg/dL | LACTATE DEHYDROGENASE [4]: 153 u/L | LIPASE [4]: 10.67 u/L | PHOSPHORUS [4]: 9.03 mg/dL | POTASSIUM [4]: 5.47 MEQ/L | SODIUM [4]: 137.1 MEQ/L | TOTAL BILIRUBIN [4]: 0.2 mg/dL | TOTAL PROTEIN [4]: 5.33 G/DL | URIC ACID [4]: 0.67 mg/dL | ABSOLUTE BASOPHIL [5]: 0 CELLS/uL | ABSOLUTE EOSINOPHIL [5]: 0 CELLS/uL | ABSOLUTE LYMPHOCYTE [5]: 7671 CELLS/uL | ABSOLUTE MONOCYTE [5]: 21 CELLS/uL | ABSOLUTE SEGMENTED NEUTROPHIL [5]: 641.33 CELLS/uL | BASOPHIL [5]: 0% | EOSINOPHIL [5]: 0% | ERYTHROCYTE COUNT [5]: 5.28 x10E6/uL | HEMATOCRIT [5]: 33.33% | HEMOGLOBIN [5]: 12.97 G/DL | LEUKOCYTE COUNT [5]: 8.33 x10E3/uL | LYMPHOCYTE [5]: 92% | MEAN CORPUSCULAR HEMOGLOBIN [5]: 24.53 pg | MEAN CORPUSCULAR VOLUME [5]: 63 fL | MONOCYTE [5]: 0.33% | NEUTROPHIL [5]: 7.67% | NUCLEATED RED BLOOD CELLS [5]: 0.33 /100WBC | PLATELET COUNT [5]: 1052.33 x10E3/uL | ALANINE AMINOTRANSFERASE [6]: 67.67 u/L | ALBUMIN [6]: 4.03 G/DL | ALKALINE PHOSPHATASE [6]: 389.33 u/L | ASPARTATE AMINOTRANSFERASE [6]: 88.67 u/L | BLOOD UREA NITROGEN [6]: 14.67 mg/dL | CARBON DIOXIDE [6]: 35 mmol/L | CHLORIDE [6]: 99.67 MEQ/L | CHOLESTEROL [6]: 57.33 mg/dL | CREATINE PHOSPHOKINASE [6]: 199.67 u/L | CREATININE [6]: 0.15 mg/dL | GLUCOSE [6]: 156.67 mg/dL | LACTATE DEHYDROGENASE [6]: 157.67 u/L | LIPASE [6]: 9.67 u/L | PHOSPHORUS [6]: 10.33 mg/dL | POTASSIUM [6]: 5.37 MEQ/L | SODIUM [6]: 144.23 MEQ/L | TOTAL BILIRUBIN [6]: 0.17 mg/dL | TOTAL PROTEIN [6]: 5.67 G/DL | URIC ACID [6]: 0.5 mg/dL
